Measured values taken from patent US11123340B2, “Small-molecule UT-A-selective urea transport inhibitors” (The Regents of the University of California, priority 2014, dated 2021).
Values joined by “and” are separate entries in the source; they are usually repeats but may differ in a detail not shown here. Identical values can stand only once.

Legend:
[1] = system: MDCK cell monolayers; assay: Inhibitor permeability across MDCK cell monolayers (LC/MS); format: in vitro ADME, canine; conditions: computed from surface-to-volume considerations
Experimental: UT-A1 expressing MDCK cells were grown on 12-mm diameter collagen-coated Transwell inserts (0.4 μm pore size; Costar, Costar, N.Y.) to form tight monolayers (resistance>500 Ωcm^2), as described (see, e.g., Levin et al. (2007) FASEB J. 21, 551-563). Urea flux in the basolateral-to-apical direction was measured in response to a 15 mM urea gradient in which PBS containing forskolin (10 μM), with or without UT-A1 inhibitor and 0.7 mM phloretin, was added to both the apical-facing (0.2 mL) and basal-facing (2 mL) surfaces. After 30 min the basal-facing solution was replaced by PBS containing test compound+15 mM urea. Apical fluid samples (5 μL) were collected at specified times for enzymatic assay of urea (QUANTICHROME Urea Assay Kit; BioAssay Systems, Hayward, Calif.). To measure inhibitor permeability across MDCK cell layers, compounds (20 μM) were added on the basal-facing surface and fluid samples (20 μL) from the apical-facing surface were collected at different time points and analyzed by LC/MS.
To further evaluate the potential site of inhibitor action, the kinetics of UT-A1 inhibition was measured by assay of UT-A1 inhibition at different times after compound addition. […] To assess inhibitor membrane permeability transport of UTAinh-E02 and UTAinh-F11 across MDCK monolayers grown on porous filters by LC/MS was measured. Transport of UTAinh-F11 was much faster than that of UTAinh-E02 (FIG. 3C, right lower panel), with computed transepithelial permeability coefficients of […] and 1.1×10^−5 cm/s, respectively. From surface-to-volume considerations, the equilibration times were computed of UTAinh-E02 and UTAinh-F11 to be 250 and 14 s, respectively, in MDCK cells, which are consistent with intracellular sites of action of both inhibitors.

[2] = molecular target: T1, rat UT-A1 (Rattus norvegicus, UniProt Q62668); assay: UT-A1 inhibition, fluorescence plate reader assay in MDCK cells expressing UT-A1, AQP1 and YFP-H148Q/V163S; format: cell-based
T1 construct: expressed in transfected cells; host or cells: MDCK cells stably co-expressing rat UT-A1, human AQP1 and YFP-H148Q/V163S
T1 sequence (Q62668 1-929): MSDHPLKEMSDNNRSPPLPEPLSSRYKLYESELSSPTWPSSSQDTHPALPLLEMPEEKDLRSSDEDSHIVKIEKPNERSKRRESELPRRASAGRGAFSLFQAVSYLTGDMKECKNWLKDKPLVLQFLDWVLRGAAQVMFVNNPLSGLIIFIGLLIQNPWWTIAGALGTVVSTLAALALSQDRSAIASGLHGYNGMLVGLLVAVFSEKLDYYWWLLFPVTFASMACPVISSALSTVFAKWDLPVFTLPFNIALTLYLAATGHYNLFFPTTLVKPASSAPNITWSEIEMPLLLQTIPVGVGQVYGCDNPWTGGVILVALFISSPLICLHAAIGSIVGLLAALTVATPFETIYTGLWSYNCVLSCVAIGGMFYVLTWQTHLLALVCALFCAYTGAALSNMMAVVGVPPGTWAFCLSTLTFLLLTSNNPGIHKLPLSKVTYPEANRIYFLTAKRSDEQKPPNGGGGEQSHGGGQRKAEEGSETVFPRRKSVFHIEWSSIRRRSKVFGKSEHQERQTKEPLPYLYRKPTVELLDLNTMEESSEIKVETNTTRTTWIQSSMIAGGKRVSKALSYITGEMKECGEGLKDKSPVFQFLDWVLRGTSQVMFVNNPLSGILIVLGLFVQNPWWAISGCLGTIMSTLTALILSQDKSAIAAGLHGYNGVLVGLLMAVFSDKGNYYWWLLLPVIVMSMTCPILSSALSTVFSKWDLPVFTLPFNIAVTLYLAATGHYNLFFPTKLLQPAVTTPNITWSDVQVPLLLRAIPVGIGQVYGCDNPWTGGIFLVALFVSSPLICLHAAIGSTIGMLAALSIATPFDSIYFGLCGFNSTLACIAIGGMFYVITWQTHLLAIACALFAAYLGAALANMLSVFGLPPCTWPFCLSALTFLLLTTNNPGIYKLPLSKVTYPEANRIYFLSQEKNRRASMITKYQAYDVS
Experimental: Primary screening was done using a collection of 50,000 chemically diverse, drug-like compounds from ChemDiv (San Diego, Calif.). For analysis of structure-activity relationships, >300 commercially available analogs (ChemDiv and Asinex, Winston-Salem, N.C.) were tested. Cells were plated on black 96-well Costar microplates with clear plastic bottoms (Corning, Corning, N.Y.) at 15,000 cells/well and cultured for 24 h at 37° C. before assay. Microplates containing cultured cells were washed twice with PBS and 150 μL of test compound (25 μM final) in PBS was added. Eighty wells contained test compounds, and the first and last columns of each plate contained negative (dimethyl sulfoxide, DMSO) and positive (0.35 mM phloretin) controls. The assays were done on a plate reader (Tecan Trading AG, Switzerland) equipped with a custom YFP filter set. Each assay consisted of a continuous 15-s read (5 Hz) in which 50 μL of 3.2 M urea in PBS was injected at 1 s (at 130 μL/s) to give a 800 mM final urea gradient.
MDCK cells stably expressing rat UT-A1 (see, e.g., Frohlich et al. (2006) Am J Physiol Cell Physiol. 291, C600-D606), YFP-H148Q/V163 S (see, e.g., Galietta, et al. (2001) FEBS Lett. 499, 220-224) and human AQP1, as described previously (see, e.g., Esteva-Font et al. (2013) Chem Biol. 20, 1235-1244), were grown in Dulbecco's modified Eagle medium (DMEM) containing 10% fetal bovine serum (FBS), penicillin G (100 U/mL), streptomycin (100 μg/mL), zeocin (500 μg/mL), geneticin (600 μg/mL) and Hygromycin (500 μg/mL) at 37° C., 5% CO2. A Cell Clone with bright YFP fluorescence and relatively low AQP1 expression was used for the screen to maximize dynamic range.
In order to identify UT-A inhibitors suitable for testing in rats, a collection of 50,000 synthetic small molecules was screened. As diagrammed in FIG. 1A (top), the fluorescence cell-based screen utilized MDCK cells stably rat expressing UT-A1, water channel AQP1 and the cytoplasmic chloride-sensing fluorescent protein YFP-H148Q/V163S. As described and validated previously (see, e.g., Esteva-Font et al. (2013) Chem Biol. 20, 1235-1244), extracellular addition of urea results in osmotic water efflux and cell shrinking, which increases intracellular chloride concentration and reduces YFP fluorescence. Urea entry results in increasing YFP fluorescence as cells re-swell. Inhibitors of UT-A1 urea transport produce a lesser reduction in fluorescence and slowed recovery.

equilibration time in MDCK cells [1] [s] | IC50 [2] | SMILES
250 | ~1 µM and 1 µM | CC(=O)Nc1ccc(-c2csc(-c3c[nH]c4ccccc34)n2)cc1 [UTA1inh-E02, N-(4-(2-(1H-indol-3-yl)thiazol-4-yl)phenyl)acetamide]
14 | 1 µM | COc1ccc(C)cc1S(=O)(=O)Nc1ccc(Cl)c(N2CCCS2(=O)=O)c1 [UTA1inh-F11, N-[4-Chloro-3-(1,1-dioxido-1,2-thiazolidin-2-yl)phenyl]-2-methoxy-5-methylbenzene-sulfonamide]
